Reference: ChEMBL document CHEMBL4390669, “C-6α- vs C-7α-Substituted Steroidal Aromatase Inhibitors: Which Is Better? Synthesis, Biochemical Evaluation, Docking Studies, and Structure-Activity Relationships” (J Med Chem, 2019)
The source made the active and inactive calls. The rule behind the calls is not given here.

Legend:
[1] = target: T1, Aromatase (Homo sapiens, UniProt P11511); assay: Competitive irreversible inhibition of human placental microsome aromatase using varying levels of [1beta3H]-androstenedione as substrate measured after 5 mins in presence of NADPH by Lineweaver-burk plot analysis; parameters: species or system Placenta; settings: microsomes
T1 sequence (P11511 whole entry): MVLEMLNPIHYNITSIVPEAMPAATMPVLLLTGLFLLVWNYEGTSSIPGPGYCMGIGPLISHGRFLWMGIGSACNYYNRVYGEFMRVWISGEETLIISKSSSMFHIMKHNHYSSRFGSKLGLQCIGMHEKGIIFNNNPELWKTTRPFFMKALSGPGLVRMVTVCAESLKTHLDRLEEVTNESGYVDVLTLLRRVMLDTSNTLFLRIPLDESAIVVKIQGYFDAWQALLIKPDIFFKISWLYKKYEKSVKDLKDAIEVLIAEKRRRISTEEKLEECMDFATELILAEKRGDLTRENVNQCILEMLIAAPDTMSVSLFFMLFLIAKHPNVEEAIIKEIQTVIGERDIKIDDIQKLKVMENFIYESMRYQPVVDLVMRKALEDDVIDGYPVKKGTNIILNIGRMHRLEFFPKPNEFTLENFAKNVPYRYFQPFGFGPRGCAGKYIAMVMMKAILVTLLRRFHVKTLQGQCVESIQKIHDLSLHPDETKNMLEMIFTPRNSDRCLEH

[2] = target: T1, Aromatase; assay: Inhibition of human placental microsome aromatase using [1beta3H]-androstenedione as substrate measured after 15 mins in presence of NADPH by liquid scintillation counting method; type: microsomes, Placenta; settings: for inhibition (INH): human, microsomes, 0.25 h
[3] = target: T1, Aromatase; assay: Ratio of Km to Ki for human placental microsome aromatase using varying levels of [1beta3H]-androstenedione as substrate measured after 5 mins in presence of NADPH by Dixon-plot analysis; parameters: species or system Placenta; settings: microsomes
[4] = target: T1, Aromatase; assay: Inhibition of […] aromatase expressed in human MCF7 cells at 10 uM using [1beta3H]-androstenedione as substrate measured after 1 hr in presence of progesterone relative to control
[5] = target: T1, Aromatase; assay: Inhibition of human placental microsome aromatase at 2 uM using [1beta3H]-androstenedione as substrate measured after 15 mins in presence of NADPH by liquid scintillation counting method relative to control; type: microsomes, Placenta; settings: 0.25 h
[6] = tested on: MCF7; assay: Induction of crystal formation in human MCF7 cells transfected with human placental microsome aromatase at 10 uM measured after 1 hr; type: functional, cell-based
[7] = target: T1, Aromatase; assay: Competitive reversible inhibition of human placental microsome aromatase assessed as substrate Vmax per ug protein using varying levels of [1beta3H]-androstenedione as substrate measured after 5 mins in presence of NADPH by Dixon-plot analysis; parameters: species or system Placenta; settings: microsomes
[8] = target: T1, Aromatase; assay: Competitive reversible inhibition of human placental microsome aromatase using varying levels of [1beta3H]-androstenedione as substrate measured after 5 mins in presence of NADPH by Dixon-plot analysis; type: microsomes, Placenta; settings: read-out: Ki(app)
[9] = target: T1, Aromatase; assay: Competitive reversible inhibition of human placental microsome aromatase using varying levels of [1beta3H]-androstenedione as substrate measured after 5 mins in presence of NADPH by Lineweaver-burk plot analysis; parameters: species or system Placenta; settings: microsomes
[10] = target: T1, Aromatase; assay: Competitive irreversible inhibition of human placental microsome aromatase using varying levels of [1beta3H]-androstenedione as substrate measured after 5 mins in presence of NADPH by Dixon-plot analysis; type: microsomes, Placenta; settings: read-out: Ki(app)

C=CC[C@H]1C[C@@H]2[C@H](CC[C@]3(C)C(=O)CC[C@@H]23)[C@@]2(C)C=CC(=O)C=C12
inhibition (INH) [1]: Active | IC50 [2]: 0.055 µM | inhibition (INH) [2]: Dose-dependent effect | Ratio [3]: 2.81 | inhibition at 10 µM [4]: 99.2% | inhibition at 2 µM [5]: 97.6%

C[C@]12CCC(=O)C=C1[C@@H](O)C[C@@H]1[C@@H]2CC[C@]2(C)C(=O)CC[C@@H]12
IC50 [2]: 0.88 µM | inhibition at 10 µM [4]: 88.4% | inhibition at 2 µM [5]: 90.7%

C=CC[C@@H]1CC2=CC(=O)CC[C@]2(C)[C@H]2CC[C@]3(C)C(=O)CC[C@H]3[C@H]12
inhibition at 10 µM [4]: 92.6%

C[C@H]1C[C@H]2[C@@H]3CCC(=O)[C@@]3(C)CC[C@@H]2[C@@]2(C)CCC[C@H]3O[C@]132
inhibition at 2 µM [5]: 58.7%

C[C@@H]1C[C@@]23O[C@@H]2CCC[C@]3(C)[C@H]2CC[C@]3(C)C(=O)CC[C@H]3[C@H]12
inhibition at 2 µM [5]: 64.9%

C=CC[C@@H]1CC2=CCCC[C@]2(C)[C@H]2CC[C@]3(C)C(=O)CC[C@H]3[C@H]12
inhibition at 10 µM [4]: 74.7%

C[C@H]1C[C@@H]2[C@H](CC[C@]3(C)C(=O)CC[C@@H]23)[C@@]2(C)CCC=C[C@H]12
IC50 [2]: 0.56 µM | inhibition at 10 µM [4]: 88.7% | inhibition at 2 µM [5]: 93.5%

C[C@]12CCC(=O)C=C1C[C@@H](O)[C@@H]1[C@@H]2CC[C@]2(C)C(=O)CC[C@@H]12
inhibition at 2 µM [5]: 49.8%

C=CC[C@@H]1CC2=C(O)C(=O)CC[C@]2(C)[C@H]2CC[C@]3(C)C(=O)CC[C@H]3[C@H]12
Activity [6]: Active | IC50 [2]: 0.11 µM | inhibition (INH) [2]: Dose-dependent effect | inhibition at 2 µM [5]: 91.8%

C=CC[C@H]1C[C@@H]2[C@H](CC[C@]3(C)C(=O)CC[C@@H]23)[C@@]2(C)CCCC=C12
IC50 [2]: 0.21 µM | inhibition at 10 µM [4]: 84.1% | inhibition at 2 µM [5]: 92.4%

C[C@H]1C[C@@H]2[C@H](CC[C@]3(C)C(=O)CC[C@@H]23)[C@@]2(C)CC[C@H]3O[C@H]3[C@H]12
IC50 [2]: 0.175 µM | inhibition at 10 µM [4]: 84.2% | inhibition at 2 µM [5]: 96.7%

C[C@@H]1CC2=CC(=O)CC[C@]2(C)[C@H]2CC[C@]3(C)C(=O)CC[C@H]3[C@H]12
IC50 [2]: 0.27 µM | inhibition at 10 µM [4]: 90.8% | inhibition at 2 µM [5]: 94.3%

C[C@@H]1CC2=CCCC[C@]2(C)[C@H]2CC[C@]3(C)C(=O)CC[C@H]3[C@H]12
IC50 [2]: 0.405 µM | inhibition at 10 µM [4]: 89.5% | inhibition at 2 µM [5]: 97.4%

C[C@H]1C[C@@H]2[C@H](CC[C@]3(C)C(=O)CC[C@@H]23)[C@@]2(C)CCCC=C12
Activity [6]: Active | IC50 [2]: 0.17 µM | inhibition at 2 µM [5]: 96.7%

C[C@@H]1C[C@@H]2[C@H]3O[C@H]3CC[C@]2(C)[C@H]2CC[C@]3(C)C(=O)CC[C@H]3[C@H]12
inhibition at 2 µM [5]: 13.7%

C=CC[C@@H]1CC2=CC(=O)C=C[C@]2(C)[C@H]2CC[C@]3(C)C(=O)CC[C@H]3[C@H]12
inhibition at 10 µM [4]: 96.3%

C=CC[C@H]1C[C@@H]2[C@H](CC[C@]3(C)C(=O)CC[C@@H]23)[C@@]2(C)CCC(=O)C(O)=C12
IC50 [2]: 0.52 µM | inhibition at 10 µM [4]: 80.7% | inhibition at 2 µM [5]: 90.1%

C[C@H]1C[C@@H]2[C@H](CC[C@]3(C)C(=O)CC[C@@H]23)[C@@]2(C)CCC(=O)C=C12
Vmax [7]: 0.0191 nmol/min | IC50 [2]: 0.06 µM | inhibition (INH) [2]: Dose-dependent effect | Ratio [3]: 2.53 | Ki [8]: 0.025 µM | inhibition (INH) [9]: Active | Ki [10]: 0.0225 µM | inhibition at 10 µM [4]: 98.6% | inhibition at 2 µM [5]: 98.7%

C=CC[C@H]1C[C@@H]2[C@H](CC[C@]3(C)C(=O)CC[C@@H]23)[C@@]2(C)CCC(=O)C=C12
IC50 [2]: 0.105 µM | inhibition (INH) [2]: Dose-dependent effect | inhibition at 10 µM [4]: 96.5% | inhibition at 2 µM [5]: 97.2%

C[C@]12CCC(=O)C=C1[C@H](O)C[C@@H]1[C@@H]2CC[C@]2(C)C(=O)CC[C@@H]12
IC50 [2]: 0.84 µM | inhibition at 10 µM [4]: 88.2% | inhibition at 2 µM [5]: 88.6%

C[C@H]1C[C@H]2[C@@H]3CCC(=O)[C@@]3(C)CC[C@@H]2[C@@]2(C)CCC[C@@H]3O[C@]312
inhibition at 2 µM [5]: 76.2%

C[C@]12CCC(=O)C(O)=C1CC[C@@H]1[C@@H]2CC[C@]2(C)C(=O)CC[C@@H]12 [FORMESTANE]
inhibition at 10 µM [4]: 97.1% | inhibition at 2 µM [5]: 99.2%
